These results are taken from ChEMBL document CHEMBL1143013, “4-aryl-5-(4-piperidyl)-3-isoxazolol GABAA antagonists: synthesis, pharmacology, and structure-activity relationships” (J Med Chem, 2007).

The Ki is the equilibrium dissociation constant of an inhibitor or competing ligand from its target.

Active and inactive are the calls of the source. The calls are words filed in the database; no cut-off is given here.

For assay [1], the species on record is Rattus norvegicus. Kind of assay: Displacement of [3H]GABA from GABAB receptor in Sprague-Dawley rat brain synaptic membrane at 100 uM. (In general: In a radioligand displacement assay an active substance lowers the binding of a labelled ligand.)
For assay [2], the target named is T1, GABA-A receptor; alpha-1/beta-3/gamma-2 (Homo sapiens, UniProt P14867+P18507+P28472).
T1 sequence (P14867 whole entry): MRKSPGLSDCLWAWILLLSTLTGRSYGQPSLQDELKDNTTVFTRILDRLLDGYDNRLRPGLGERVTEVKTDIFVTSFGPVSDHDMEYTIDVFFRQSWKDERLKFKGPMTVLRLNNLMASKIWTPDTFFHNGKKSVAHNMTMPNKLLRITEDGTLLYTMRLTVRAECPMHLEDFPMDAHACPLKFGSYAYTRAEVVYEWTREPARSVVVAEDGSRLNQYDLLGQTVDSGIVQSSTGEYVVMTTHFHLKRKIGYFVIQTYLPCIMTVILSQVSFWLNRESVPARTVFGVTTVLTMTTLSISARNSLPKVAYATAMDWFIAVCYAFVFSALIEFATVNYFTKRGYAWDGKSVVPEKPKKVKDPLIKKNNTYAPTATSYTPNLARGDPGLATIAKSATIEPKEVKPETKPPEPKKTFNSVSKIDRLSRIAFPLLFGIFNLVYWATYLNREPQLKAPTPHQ
T1 sequence (P18507 whole entry): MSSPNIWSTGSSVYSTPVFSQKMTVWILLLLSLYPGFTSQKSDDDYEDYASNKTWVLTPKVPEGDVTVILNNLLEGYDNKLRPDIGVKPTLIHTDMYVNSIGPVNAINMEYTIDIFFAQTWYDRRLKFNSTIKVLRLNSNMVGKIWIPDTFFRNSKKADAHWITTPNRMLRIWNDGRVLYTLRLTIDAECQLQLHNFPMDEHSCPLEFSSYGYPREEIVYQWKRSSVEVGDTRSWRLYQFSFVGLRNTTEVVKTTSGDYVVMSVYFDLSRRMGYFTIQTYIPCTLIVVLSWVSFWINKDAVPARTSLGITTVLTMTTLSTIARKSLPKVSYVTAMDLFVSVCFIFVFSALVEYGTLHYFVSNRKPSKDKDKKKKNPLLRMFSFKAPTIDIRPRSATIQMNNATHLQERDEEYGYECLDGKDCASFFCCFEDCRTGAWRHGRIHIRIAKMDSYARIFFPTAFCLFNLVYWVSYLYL
T1 sequence (P28472 whole entry): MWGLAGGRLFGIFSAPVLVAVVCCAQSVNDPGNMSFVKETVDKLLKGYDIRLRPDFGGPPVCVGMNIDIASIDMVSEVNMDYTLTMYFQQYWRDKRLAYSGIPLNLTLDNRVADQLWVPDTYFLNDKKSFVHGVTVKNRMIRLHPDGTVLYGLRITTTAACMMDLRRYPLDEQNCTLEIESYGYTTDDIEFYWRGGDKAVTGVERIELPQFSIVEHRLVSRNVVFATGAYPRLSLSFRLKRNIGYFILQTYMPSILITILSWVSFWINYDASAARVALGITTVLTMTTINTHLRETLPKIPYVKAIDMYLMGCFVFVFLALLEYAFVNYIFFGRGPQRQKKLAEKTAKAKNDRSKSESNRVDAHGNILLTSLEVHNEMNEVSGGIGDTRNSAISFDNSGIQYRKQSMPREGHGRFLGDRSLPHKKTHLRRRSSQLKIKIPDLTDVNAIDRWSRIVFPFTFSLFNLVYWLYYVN
Kind of assay: Antagonist activity at human GABAA alpha-1-beta-3-gamma-2S expressed in Xenopus oocytes by two-electrode voltage-clamp electrophysiology. It is filed as functional, cell-based, Oocyte. For orientation: Two-electrode voltage clamp holds a large cell at a set potential and records current.

Assay [3] in a line: Displacement of [3H]muscimol from GABAA receptor in Sprague-Dawley rat brain synaptic membrane.

Regarding `Br.Oc1noc(C2CCNCC2)c1-c1ccc(Oc2ccccc2)cc1`, the outcome in assay [1] was inactive. Further, the Ki in assay [2] (read-out: Ki) came out at 0.008 µM. Besides, in assay [3], the Ki came to 0.07 µM and the “Log Ki” value is reported as -7.15.
Regarding `Br.Oc1noc(C2CCNCC2)c1-c1cccc(-c2ccccc2)c1`, in assay [1], the result was inactive. In assay [2] (read-out: Ki), the inhibition constant (Ki) came to 0.01 µM. In assay [3], the Ki is 0.01 µM and the “Log Ki” value was -8.
Take `Br.Oc1noc(C2CCNCC2)c1-c1ccc(-c2ccccc2)cc1`: in assay [1], the outcome was inactive. Moreover, the results for the Ki in assay [2] (read-out: Ki) and in assay [3] were 0.071 µM and 0.195 µM, respectively. Also, in assay [3], the “Log Ki” value was -6.71.
For the molecule `Oc1noc(C2CCNCC2)c1-c1ccc2ccccc2c1`, the outcome in assay [1] was inactive. The Ki in assay [2] (read-out: Ki) was determined as 0.141 µM; in assay [3] it was 0.036 µM.
As to `Oc1cc(C2CCNCC2)on1`, the result in assay [1] was inactive.
Regarding `Br.Oc1noc(C2CCNCC2)c1-c1csc(-c2ccccc2)c1`, the outcome in assay [1] was inactive. In addition, the Ki in assay [2] (read-out: Ki) is 0.009 µM. Further, in assay [3], the Ki was found to be 0.025 µM and the “Log Ki” value is -7.61.
For the molecule `Br.Oc1noc(C2CCNCC2)c1-c1cc(Cl)cc(Cl)c1`, the result in assay [1] was inactive. In addition, the Ki in assay [2] (read-out: Ki) turned out to be 0.068 µM. For the same molecule, in assay [3], the Ki was found to be 0.077 µM and the “Log Ki” value was -7.11.
Turning to `O=c1[nH]oc(C2CCNCC2)c1-c1cccc2ccccc12`, in assay [2] (read-out: Ki), the Ki was found to be 0.334 µM.
Turning to `Br.Oc1noc(C2CCNCC2)c1-c1cccnc1`, in assay [1], the outcome was inactive. The results for the Ki in assay [2] (read-out: Ki), in assay [2] (read-out: Log Ki (converted)) and in assay [3] were 0.427 µM, 0.479 µM and 0.955 µM, respectively. In assay [3], the “Log Ki” value is listed as -6.02.
For the molecule `Br.Oc1noc(C2CCNCC2)c1-c1ccsc1`, the result in assay [1] was inactive. Further, in assay [2] (read-out: Ki), the Ki was 0.076 µM. Further, in assay [3], the Ki stood at 0.317 µM and the “Log Ki” value is -6.5.
With `Oc1noc(C2CCNCC2)c1-c1ccccc1`, in assay [1], the result was inactive. Besides, the Ki in assay [2] (read-out: Ki) was determined as 0.159 µM; in assay [3], 0.22 µM.
On to `Br.Oc1noc(C2CCNCC2)c1-c1ccc(Cl)cc1`, for which the result in assay [1] was inactive. For the same molecule, the Ki in assay [2] (read-out: Ki) was determined as 0.204 µM; in assay [3], 2.43 µM. For the same molecule, in assay [3], the “Log Ki” value is -5.62.
Turning to `Oc1noc(C2CCNCC2)c1Cc1ccc2ccccc2c1-c1ccccc1`, the outcome in assay [1] was inactive. For the same molecule, the Ki in assay [2] (read-out: Ki) was 0.198 µM; in assay [3] it was 0.021 µM.
As to `Oc1noc(C2CCNCC2)c1-c1cccc2ccccc12`, in assay [1], the result was inactive. In addition, in assay [3], the Ki is 0.82 µM.
`Oc1noc(C2CCNCC2)c1Cc1ccc2ccccc2c1`: the result in assay [1] was inactive. The molecule also gave a Ki in assay [3] of 0.049 µM.
In the case of `Br.Oc1noc(C2CCNCC2)c1-c1ccccc1Cl`, the outcome in assay [1] was inactive. Further, the Ki in assay [2] (read-out: Ki) came out at 0.129 µM; in assay [3], 0.851 µM. For the same molecule, in assay [3], the “Log Ki” value is -6.07.
Take `Br.O=[N+]([O-])c1cccc(-c2c(O)noc2C2CCNCC2)c1`: the outcome in assay [1] was inactive. The Ki in assay [2] (read-out: Ki) is 0.138 µM. In assay [3], the affinity, expressed as Ki, was 0.234 µM and the “Log Ki” value is recorded as -6.63.
Regarding `Br.Br.Nc1cccc(-c2c(O)noc2C2CCNCC2)c1`, the result in assay [1] was inactive. Also, in assay [2] (read-out: Ki), the Ki came out at 0.059 µM. Moreover, in assay [3], the Ki stood at 0.084 µM and the “Log Ki” value is listed as -7.07.
Consider `Br.Oc1noc(C2CCNCC2)c1-c1cccc(Cl)c1`, for which, in assay [1], the outcome was inactive. For the same molecule, the Ki in assay [2] (read-out: Ki) worked out at 0.048 µM. Besides, in assay [3], the Ki was found to be 0.058 µM and the “Log Ki” value is recorded as -7.24.
As to `Br.CC(C)(C)c1ccc(-c2c(O)noc2C2CCNCC2)cc1`, the outcome in assay [1] was inactive. Besides, the Ki in assay [2] (read-out: Ki) was found to be 0.257 µM; in assay [3], 6.98 µM. Further, the “Log Ki” value in assay [3] was -5.16.
